The subject of assay [1] is Del19/T790M/C797S EGFR. Description: EGFR degradation HTRF assay in H1975-clone #28 (DTC) cells. It is filed as cell-based. The note with it: H1975 # 28 DTC (Del19/T790M/C797S), 16h treatment; for DC50: HTRF; for Dmax (%): maximum percentage of degradation. An excerpt:
(§1) H1975-clone #28(Del19/T790M/C797S, or abbr: DTC), H1975-clone #23(Del19/C797S, or abbr: DC), H1975-clone #25(L858R/T790M/C797S, or abbr: LTC) and H1975-clone #8 (L858R/C797S, or abbr: LC). EGFR-Del19:T790M/C797S, EGFR-Del19/C797S, EGFR-L858R/T790M/C797S and EGFR-L858R/C797S were stably expressed in H1975 cell lines by lentivirus-mediated over-expression, respectively. The EGFR over-expressed cells then underwent knockout, in which the EGFR targeting sgRNA was designed to only target the endogenous EGFR copies and preserve the exogenous EGFR copies. Followed by the knockout, the edited H1975 cells were seeded in 96 well plates at the concentration of […], cultured for about 2 weeks to allow single clones formation. The formed clones were screened by DNA sequencing and whole exon sequencing analysis for the desired edition. H1975-clone #28, H1975-clone #23, H1975-clone #25 and H1975-clone #8 were finally confirmed as homozygous Del19/T790M/C797S EGFR, Dell9/C797S EGFR, L858R/T790M/C797S EGFR and L858R/C797S EGFR clones, respectively.
(§2) H1975-#25, H1975-#28, H1975-#23 and H1975-#8 cells are treated with compounds diluted in 0.2% DMSO cell culture medium on day 2, incubate for 16h, 37° C., 5% CO2. the final concentration of compounds in all assay is start with 10 uM, 5-fold dilution, total 8 doses were included.
(§3) After 16h treatment, add HTRF lysis buffer to each well; seal the plate and incubate 1 hour at room temperature on a plate shaker; Once the cells are lysed, 16 μL of cell lysate are transferred to a PE 384-well HTRF detection plate; 4 μL of pre-mixed HTRF antibodies are added to each well; Cover the plate with a plate sealer, spin 1000 rpm for 1 min, Incubate overnight at room temperature; Read on BMG PheraStar with HTRF protocol (337 nm-665 nm-620 nm).
(§4) The IC50 (DC50) value of a compound can be obtained by fitting the following equation
(§5) Y=Bottom+(TOP−Bottom)/(1+((IC50/X)^hillslope))
(§6) Wherein, X and Y are known values, and IC50, Hillslope, Top and Bottom are the parameters obtained by fitting with software. Y is the inhibition percentage (calculated from the equation), X is the concentration of the compound: IC50 is the concentration of the compound when the 50% inhibition is reached. The smaller the IC50 value is, the stronger the inhibitory ability of the compound is. Vice versa, the higher the IC50 value is, the weaker the ability the inhibitory ability of the compound is: Hillslope represents the slope of the fitted curve, generally around 1*; Bottom represents the minimum value of the curve obtained by data fitting, which is generally 0%±20%; Top represents the maximum value of the curve obtained by data fitting, which is generally 100%±20%. The experimental data were fitted by calculating and analyzing with Dotmatics data analysis software.

Assay [2] has as its target T1, L858R/T790M/C797S EGFR (Homo sapiens, UniProt P00533, C797S/L858R/T790M).
T1 construct: expressed in transfected cells; host or cells: H1975 clone #25 (lentiviral over-expression, endogenous EGFR knocked out by sgRNA)
The assay is described as follows: EGFR degradation HTRF assay in H1975-clone #25 (LTC) cells. It is filed as cell-based. Particulars: 16h treatment; for DC50: HTRF; for Dmax: NCI-H1975, H1975 # 25-LTC (L858R/T790M/C797S).
Text: as §1, §2, §3, §4, §5, §6
Background: Time-resolved FRET reads energy transfer from a long-lived donor to a nearby acceptor.

Setting [3] is: H1975 # 25-LTC (L858R/T790M/C797S).
[4] abbreviates: maximum percentage of degradation.

By DC50 is commonly meant the concentration at which degradation of the target reaches its halfway point. As a reminder, the Dmax is the largest share of the target that was removed. High values mean a fuller loss of target, low ones a partial loss of target. For `Cc1cc2cc(n1)-c1cnn(C)c1OCC[C@H]1C[C@@H]1CN1/C(=N/C2=O)Nc2ccc(N3CCN(C4CCN(c5ccc(C6CCC(=O)NC6=O)nc5C)CC4)CC3)cc21` (stereo partly shown) [Example 465, 3-(5-(4-(4-((7^1S,7^2R,E)-1^1,2^6-dimethyl-3-oxo-5^2,5^3-dihydro-1^1H,5^1H-10-oxa-4-aza-5(2,1)-benzo[d]imidazola-2(2,4)-pyridina-1(4,5)-pyrazola-7(1,2)-cyclopropanacyclodecaphane-5^6-yl)piperazin-1-yl)piperidin-1-yl)-6-methylpyridin-2-yl)piperidine-2,6-dione], the half-maximal degradation concentration (DC50) in assay [1] is 0.319 nM; in assay [2] (setting [3]), 0.472 nM. Besides, in assay [1], the “Dmax (%)” value is given as 90.39%. In assay [2] (setting [4]), this molecule yielded a Dmax of 94.8%.

In the case of “(R)-3-(2,6-difluoro-4-(3-(7-(((R,E)-1^1,2^6,7-trimethyl-3-oxo-5^2,5^3-dihydro-1^1H,5^1H-11-oxa-4-aza-5(2,1)-benzo[d]imidazola-2(2,4)-pyridina-1(4,5)-pyrazolacycloundecaphane-5^6-yl)methyl)-2,7-diazaspiro[3.5]nonane-2-carbonyl)azetidin-1-yl)phenyl)piperidine-2,6-dione [Example 25]”, the 50% degradation concentration (DC50) came to 0.6 nM in assay [1] and 0.4 nM in assay [2] (setting [3]). The “Dmax (%)” value in assay [1] worked out at 86.3%; in assay [2] (H1975 # 25-LTC (L858R/T790M/C797S), maximum percentage of degradation), 93.6%.

In the case of `Cc1cc2cc(n1)-c1cnn(C)c1OCCC[C@@H](C)CN1/C(=N/C2=O)Nc2ccc(C(=O)N(C)[C@@H]3CCCN(CCc4cc(F)c([C@H]5CCC(=O)NC5=O)c(F)c4)CC3)cc21` [Example 292, (R,E)-N—((R)-1-(4-((R)-2,6-dioxopiperidin-3-yl)-3,5-difluorophenethyl)azepan-4-yl)-N,1^1,2^6,7-tetra methyl-3-oxo-5^2,5^3-dihydro-1^1H,5^1H-11-oxa-4-aza-5(2,1)-benzo[d]imidazola-2(2,4)-pyridina-1(4,5)-pyrazolacycloundecaphane-5^6-carboxamide], in assay [1], the DC50 turned out to be 0.608 nM and the “Dmax (%)” value is listed as 85.48%. Also, half-maximal degradation in assay [2] (setting [3]) (DC50) was put at 0.514 nM. The molecule also had a Dmax in assay [2] (setting [4]) of 89.4%.

Turning to `Cc1cc2cc(n1)-c1cnn(C)c1OCCC[C@@H](C)CN1/C(=N/C2=O)Nc2ccc(N3CCN(C4CCN(c5cc(F)c([C@H]6CCC(=O)NC6=O)c(F)c5)CC4)[C@@H](CO)C3)cc21` [Example 421, (R)-3-(2,6-difluoro-4-(4-((R)-2-(hydroxymethyl)-4-((R,E)-1^1,2^6,7-trimethyl-3-oxo-5^2,5^3-dihydro-1^1H,5^1H-11-oxa-4-aza-5(2,1)-benzo[d]imidazola-2(2,4)-pyridina-1(4,5)-pyrazolacycloundecaphane-5^6-yl)piperazin-1-yl)piperidin-1-yl)phenyl)piperidine-2,6-dione], in assay [1], the DC50 was determined as 0.639 nM and the “Dmax (%)” value is 84.08%. Moreover, the DC50 in assay [2] (setting [3]) is 0.604 nM. This molecule returned a Dmax in assay [2] (setting [4]) of 87.5%.

`Cc1cc2cc(n1)-c1cnn(C)c1OCCC[C@@H](C)CN1/C(=N/C2=O)Nc2ccc(CN3CCN(C[C@H]4CCN(c5cc(F)c([C@H]6CCC(=O)NC6=O)c(F)c5)C4)CC3)cc21` [Example 90, (R)-3-(2,6-difluoro-4-((R)-3-((4-(((R,E)-1^1,2^6,7-trimethyl-3-oxo-5^2,5^3-dihydro-^1H,5^1H-11-oxa-4-aza-5(2,1)-benzo[d]imidazola-2(2,4)-pyridina-1(4,5)-pyrazolacycloundecaphane-5^6-yl)methyl)piperazin-1-yl)methyl)pyrrolidin-1-yl)phenyl)piperidine-2,6-dione] registered a DC50 in assay [2] (setting [3]) of 1.1 nM. In addition, the Dmax in assay [2] (setting [4]) was determined as 86.9%.

In assay [2] (setting [3]), `Cc1cc2cc(n1)-c1cnn(C)c1OCCC[C@@H](C)CN1/C(=C/C2=O)Nc2ccc(CN3CCC(N4CCC(c5cc(F)c([C@H]6CCC(=O)NC6=O)c(F)c5)CC4)CC3)cc21` [Example 16, (R)-3-(2,6-difluoro-4-(1′-(((R,E)-1^1,2^6,7-trimethyl-3-oxo-5^2,5^3-dihydro-1^1H,5^1H-11-oxa-4-aza-5(2,1)-benzo[d]imidazola-2(2,4)-pyridina-1(4,5)-pyrazolacycloundecaphane-5^6-yl)methyl)-[1,4′-bipiperidin]-4-yl)phenyl)piperidine-2,6-dione] displayed a DC50 of 10.6 nM. In assay [2] (setting [4]), this molecule came in with a Dmax of 82.1%.

Take `Cc1cc2cc(n1)-c1cnn(C)c1OCCC[C@@H](C)CN1/C(=N/C2=O)Nc2ccc(CN3CC4(CCN(CCc5cc(F)c([C@H]6CCC(=O)NC6=O)c(F)c5)CC4)C3)cc21` [Example 93, (R)-3-(2,6-difluoro-4-(2-(2-(((R,E)-1^1,2^6,7-trimethyl-3-oxo-5^2,5^3-dihydro-1^1H,5^1H-11-oxa-4-aza-5(2,1)-benzo[d]imidazola-2(2,4)-pyridina-1(4,5)-pyrazolacycloundecaphane-5^6-yl)methyl)-2,7-diazaspiro[3.5]nonan-7-yl)ethyl)phenyl)piperidine-2,6-dione]: in assay [2] (setting [3]), the DC50 stood at 1.9 nM. The same molecule gave a maximal degradation (Dmax) in assay [2] (setting [4]) of 92.7%.

In assay [2] (setting [3]), `Cc1cc2cc(n1)-c1cnn(C)c1OCCC[C@@H](C)CN1/C(=N/C2=O)Nc2ccc(CN3CCN(CCc4cc(F)c([C@H]5CCC(=O)NC5=O)c(F)c4)[C@H](C)C3)cc21` [Example 107, (R)-3-(2,6-difluoro-4-(2-((R)-2-methyl-4-(((R,E)-1^1,2^6,7-trimethyl-3-oxo-5^2,5^3-dihydro-1^1H,5^1H-11-oxa-4-aza-5(2,1)-benzo[d]imidazola-2(2,4)-pyridina-1(4,5)-pyrazolacycloundecaphane-5^6-yl)methyl)piperazin-1-yl)ethyl)phenyl)piperidine-2,6-dione] had a DC50 of 0.6 nM. This molecule showed a maximal degradation (Dmax) in assay [2] (setting [4]) of 82.5%.

Turning to `Cc1cc2cc(n1)-c1cnn(C)c1OCCC[C@@H](C)CN1/C(=N/C2=O)Nc2ccc(CN3CCN(C[C@@H]4CCN(c5cc(F)c([C@H]6CCC(=O)NC6=O)c(F)c5)C4)CC3)cc21` [Example 88, (R)-3-(2,6-difluoro-4-((S)-3-((4-(((R,E)-1^1,2^6,7-trimethyl-3-oxo-5^2,5^3-dihydro-1^1H,5^1H-1l-oxa-4-aza-5(2,1)-benzo[d]imidazola-2(2,4)-pyridina-1(4,5)-pyrazolacycloundecaphane-5^6-yl)methyl)piperazin-1-yl)methyl)pyrrolidin-1-yl)phenyl)piperidine-2,6-dione], the half-maximal degradation concentration (DC50) in assay [2] (setting [3]) was 1.5 nM. This molecule also yielded a Dmax in assay [2] (setting [4]) of 78.5%.

With `Cc1cc2cc(n1)-c1cnn(C)c1OCCC[C@@H](C)CN1/C(=N/C2=O)Nc2ccc(CN3CCC4(CC3)CCN(CC3CCN(c5ccc6c(c5)CN(C5CCC(=O)NC5=O)C6=O)CC3)CC4)cc21` (stereo partly drawn) [Example 21, 3-(1-oxo-5-(4-((9-(((R,E)-1^1,2^6,7-trimethyl-3-oxo-5^2,5^3-dihydro-1^1H,5^1H-11-oxa-4-aza-5(2,1)-benzo[d]imidazola-2(2,4)-pyridina-1(4,5)-pyrazolacycloundecaphane-5^6-yl)methyl)-3,9-diazaspiro[5.5]undecan-3-yl)methyl)piperidin-1-yl)isoindolin-2-yl)piperidine-2,6-dione], half-maximal degradation in assay [2] (setting [3]) (DC50) was put at 2.7 nM. This molecule registered a Dmax in assay [2] (setting [4]) of 77.8%.

Values taken from patent US20240342292A1, “Compounds for the Degradation of EGFR Kinase” (BeiGene Switzerland GmbH, priority 2021, published 2024).
